# Results published in patent US20230133958A1, “COMPOUNDS USEFUL IN MODULATING EGFR AND PI3K” (Mekanistic Therapeutics LLC, priority 2021, published 2023).
# Key:
# [1] = molecular target: EGFR (Homo sapiens, UniProt P00533); test: Z'-LYTE / Adapta biochemical kinase assay, EGFR; conditions: concentration of 100 nM/liter; read-out: Percent Inhibition of target enzymes, EGFR
# Text: (§1) The Z′-LYTE® biochemical assay employs a fluorescence-based, coupled-enzyme format and is based on the differential sensitivity of phosphorylated and non-phosphorylated peptides to proteolytic cleavage. The peptide substrate is labeled with two fluorophores—one at each end—that make up a FRET pair. In the primary reaction, the kinase transfers the gamma-phosphate of ATP to a single tyrosine, serine or threonine residue in a synthetic FRET-peptide. In the secondary reaction, a site-specific protease recognizes and cleaves non-phosphorylated FRET-peptides. Phosphorylation of FRET-peptides suppresses cleavage by the Development Reagent. Cleavage disrupts FRET between the donor (i.e., coumarin) and acceptor (i.e., fluorescein) fluorophores on the FRET-peptide, whereas uncleaved, phosphorylated FRET-peptides maintain FRET. A ratiometric method, which calculates the ratio (the Emission Ratio) of donor emission to acceptor emission after excitation of the donor fluorophore at 400 nm, is used to quantitate reaction progress.
# (§2) A significant benefit of this ratiometric method for quantitating reaction progress is the elimination of well-to-well variations in FRET-peptide concentration and signal intensities. As a result, the assay yields very high Z′-factor values (>0.7) at a low percent phosphorylation.
# (§3) Both cleaved and uncleaved FRET-peptides contribute to the fluorescence signals and therefore to the Emission Ratio. The extent of phosphorylation of the FRET-peptide can be calculated from the Emission Ratio. The Emission Ratio will remain low if the FRET-peptide is phosphorylated (i.e., no kinase inhibition) and will be high if the FRET-peptide is non-phosphorylated (i.e., kinase inhibition).
# (§4) Enzyme: The ADAPTA universal kinase assay is a homogenous, fluorescent based immunoassay for the detection of ADP. In contrast to ATP depletion assays, the ADAPTA assay is extremely sensitive to ADP formation such that a majority of the signal change occurs in the first 10-20% conversion of ATP to ADP. This makes the ADAPTA universal kinase assay ideally suited for use with low activity kinases.
# (§5) The principle of the ADAPTA universal kinase assay is outlined below. The assay itself can be divided into two phases: a kinase reaction phase, and an ADP detection phase. In the kinase reaction phase, all components required for the kinase reaction are added to the well, and the reaction is allowed to incubate for 60 minutes. After the reaction, a detection solution consisting of a europium labeled anti-ADP antibody, an Alexa Fluor® 647 labeled ADP tracer, and EDTA (to stop the kinase reaction) is added to the assay well. ADP formed by the kinase reaction (in the absence of an inhibitor) will displace the Alexa Fluor® 647 labeled ADP tracer from the antibody, resulting in a decrease in the TR-FRET signal. In the presence of an inhibitor, the amount of ADP formed by the kinase reaction is reduced, and the resulting intact antibody-tracer interaction results in a high TR-FRET signal.
# (§6) Test Compounds: The Test Compounds are screened in 1% DMSO (final) in the well. For 10 point titrations, 3-fold serial dilutions are conducted from the starting concentration of the customer’s choosing.
# (§7) Peptide/Kinase Mixtures: All Peptide/Kinase Mixtures are diluted to a 2X working concentration in the appropriate Kinase Buffer.
# (§8) ATP Solution: All ATP Solutions are diluted to a 4X working concentration in Kinase Buffer (50 mM HEPES pH 7.5, 0.01% BRIJ-35, 10 mM MgCl2,1 mM EGTA). ATP Km apparent is previously determined using a Z′-LYTE® assay.
# (§9) Development Reagent Solution: The Development Reagent is diluted in Development Buffer.
# (§10) Assay Protocol: Bar-coded Corning, low volume NBS, black 384-wellplate (Corning Cat. #4514) 1. 2.5 µL - 4X Test Compound or 100 nL 100X plus 2.4 µL kinase buffer. 2. 5 µL - 2X Peptide/Kinase Mixture. 3. 2.5 µL - 4X ATP Solution. 4. 30-second plate shake. 5. 60-minute Kinase Reaction incubation at room temperature. 6. 5 µL - Development Reagent Solution. 7. […]
# [2] = molecular target: PI3Kα (Homo sapiens, UniProt P42336); test: Z'-LYTE / Adapta biochemical kinase assay, PI3Kα; conditions: concentration of 100 nM/liter; read-out: Percent Inhibition of target enzymes, PI3K A
# Text: as §1, §2, §3, §4, §5, §6, §7, §8, §9, §10
# [3] = molecular target: DNA-PK (Homo sapiens, UniProt P78527); test: Z'-LYTE / Adapta biochemical kinase assay, DNA-PK; conditions: concentration of 100 nM/liter; read-out: Percent Inhibition of target enzymes, DNA-PK
# Text: as §1, §2, §3, §4, §5, §6, §7, §8, §9, §10
# PI3Kα, sequence (P42336 whole entry): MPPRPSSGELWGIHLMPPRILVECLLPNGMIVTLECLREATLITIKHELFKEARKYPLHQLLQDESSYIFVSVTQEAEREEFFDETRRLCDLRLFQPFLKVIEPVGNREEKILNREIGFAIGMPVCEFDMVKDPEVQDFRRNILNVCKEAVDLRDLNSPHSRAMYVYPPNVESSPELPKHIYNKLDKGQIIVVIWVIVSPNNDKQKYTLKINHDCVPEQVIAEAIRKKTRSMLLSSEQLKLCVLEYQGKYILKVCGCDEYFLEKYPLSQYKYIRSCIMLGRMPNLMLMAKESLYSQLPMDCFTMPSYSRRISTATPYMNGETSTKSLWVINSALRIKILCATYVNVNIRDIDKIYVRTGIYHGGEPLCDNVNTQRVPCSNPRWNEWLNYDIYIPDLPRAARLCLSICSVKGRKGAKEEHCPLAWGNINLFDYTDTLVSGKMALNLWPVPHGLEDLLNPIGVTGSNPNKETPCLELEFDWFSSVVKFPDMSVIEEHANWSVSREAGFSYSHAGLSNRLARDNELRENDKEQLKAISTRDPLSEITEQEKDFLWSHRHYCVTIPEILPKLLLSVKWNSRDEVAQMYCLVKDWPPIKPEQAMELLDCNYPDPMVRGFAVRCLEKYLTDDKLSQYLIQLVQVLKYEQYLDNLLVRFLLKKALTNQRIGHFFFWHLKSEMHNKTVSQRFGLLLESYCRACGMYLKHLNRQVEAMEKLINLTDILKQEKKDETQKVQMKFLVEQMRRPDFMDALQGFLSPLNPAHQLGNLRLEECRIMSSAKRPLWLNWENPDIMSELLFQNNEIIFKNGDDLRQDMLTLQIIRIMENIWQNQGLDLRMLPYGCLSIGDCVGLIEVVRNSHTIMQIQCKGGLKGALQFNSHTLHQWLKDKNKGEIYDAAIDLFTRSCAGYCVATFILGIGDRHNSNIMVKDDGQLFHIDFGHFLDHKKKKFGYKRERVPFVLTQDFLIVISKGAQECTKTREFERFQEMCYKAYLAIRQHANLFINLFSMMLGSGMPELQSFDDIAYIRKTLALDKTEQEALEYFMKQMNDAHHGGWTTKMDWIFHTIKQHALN
# PI3Kα, sequence (P27986 whole entry partner): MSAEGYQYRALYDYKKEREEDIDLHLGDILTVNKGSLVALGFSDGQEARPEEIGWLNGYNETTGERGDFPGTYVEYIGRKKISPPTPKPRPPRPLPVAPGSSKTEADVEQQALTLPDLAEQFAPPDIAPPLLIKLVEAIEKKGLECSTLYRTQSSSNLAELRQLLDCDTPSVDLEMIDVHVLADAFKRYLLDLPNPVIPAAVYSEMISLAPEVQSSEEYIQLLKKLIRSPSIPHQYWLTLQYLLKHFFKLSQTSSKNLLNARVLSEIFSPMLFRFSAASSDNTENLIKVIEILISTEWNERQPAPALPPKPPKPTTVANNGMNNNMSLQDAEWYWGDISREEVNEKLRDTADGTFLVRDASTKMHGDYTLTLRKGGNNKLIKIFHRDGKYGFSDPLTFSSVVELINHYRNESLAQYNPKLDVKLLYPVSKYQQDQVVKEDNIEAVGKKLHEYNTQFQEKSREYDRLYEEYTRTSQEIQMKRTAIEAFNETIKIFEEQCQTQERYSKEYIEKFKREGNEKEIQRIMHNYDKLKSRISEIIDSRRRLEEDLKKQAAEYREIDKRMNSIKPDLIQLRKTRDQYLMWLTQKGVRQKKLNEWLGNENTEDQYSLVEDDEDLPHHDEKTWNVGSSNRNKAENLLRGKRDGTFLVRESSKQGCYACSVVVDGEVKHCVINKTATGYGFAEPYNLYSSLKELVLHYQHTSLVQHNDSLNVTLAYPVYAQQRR
# EGFR, sequence (P00533 25-1210): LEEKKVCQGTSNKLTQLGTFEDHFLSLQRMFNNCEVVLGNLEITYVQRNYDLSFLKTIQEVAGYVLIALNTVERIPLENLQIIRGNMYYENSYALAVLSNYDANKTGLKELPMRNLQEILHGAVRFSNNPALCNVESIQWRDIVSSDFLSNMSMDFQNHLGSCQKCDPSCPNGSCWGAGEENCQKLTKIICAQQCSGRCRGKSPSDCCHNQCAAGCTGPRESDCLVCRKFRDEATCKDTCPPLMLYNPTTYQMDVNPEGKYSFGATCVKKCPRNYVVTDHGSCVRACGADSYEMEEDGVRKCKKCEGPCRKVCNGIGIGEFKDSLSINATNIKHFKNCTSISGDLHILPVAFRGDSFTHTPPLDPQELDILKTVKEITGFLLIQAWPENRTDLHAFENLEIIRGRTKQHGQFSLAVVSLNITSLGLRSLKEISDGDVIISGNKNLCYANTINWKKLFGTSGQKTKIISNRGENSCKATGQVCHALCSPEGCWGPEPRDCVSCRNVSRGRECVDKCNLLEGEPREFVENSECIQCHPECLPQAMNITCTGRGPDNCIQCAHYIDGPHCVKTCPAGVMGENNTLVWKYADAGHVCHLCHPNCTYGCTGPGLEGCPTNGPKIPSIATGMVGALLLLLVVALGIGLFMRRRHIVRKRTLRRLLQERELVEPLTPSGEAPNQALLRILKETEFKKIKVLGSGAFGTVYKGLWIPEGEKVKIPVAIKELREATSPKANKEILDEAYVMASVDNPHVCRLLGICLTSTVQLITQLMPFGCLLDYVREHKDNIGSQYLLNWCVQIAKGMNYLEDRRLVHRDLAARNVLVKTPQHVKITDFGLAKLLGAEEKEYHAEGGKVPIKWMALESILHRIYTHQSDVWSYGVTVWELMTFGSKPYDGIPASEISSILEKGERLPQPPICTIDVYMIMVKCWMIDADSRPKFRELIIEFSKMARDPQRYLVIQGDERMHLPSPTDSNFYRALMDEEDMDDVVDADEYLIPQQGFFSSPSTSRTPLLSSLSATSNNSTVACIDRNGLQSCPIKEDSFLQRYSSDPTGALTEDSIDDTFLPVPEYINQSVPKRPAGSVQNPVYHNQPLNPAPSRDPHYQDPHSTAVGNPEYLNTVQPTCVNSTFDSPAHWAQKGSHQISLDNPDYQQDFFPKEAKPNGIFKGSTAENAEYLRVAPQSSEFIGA
inhibition at 0.1 µM [1] [%],inhibition at 0.1 µM [2] [%],inhibition at 0.1 µM [3] [%],SMILES
> 90,80 to 90,> 90,"Cc1ncc(-c2ccc3ncnc(Nc4cccc(Cl)c4F)c3c2)cc1NS(C)(=O)=O [Compound 1, N-[5-[4-(3-chloro-2-fluoro-anilino)quinazolin-6-yl]-2-methyl-3-pyridyl] methanesulfonamide]"
> 90,> 90,80 to 90,"COc1ncc(-c2ccc3ncnc(Nc4cccc(Cl)c4F)c3c2)cc1NS(C)(=O)=O [Compound 2, N-[5-[4-(3-chloro-2-fluoro-anilino)quinazolin-6-yl]-2-methoxy-3-pyridyl] methanesulfonamide]"
> 90,10 to 80,80 to 90,"CS(=O)(=O)Nc1cncc(-c2ccc3ncnc(Nc4cccc(Cl)c4F)c3c2)c1 [Compound 3, N-[5-[4-(3-chloro-2-fluoro-anilino)quinazolin-6-yl]-3-pyridyl] methanesulfonamide]"
